The text below walks through data of article PMC8146939 (Biomedicines, 2021).

This assay deals with T1, GIRK2 (Homo sapiens, UniProt P48051).
T1 construct: gene KCNJ6; homotetramer GIRK2
T1 sequence (P48051 1-423): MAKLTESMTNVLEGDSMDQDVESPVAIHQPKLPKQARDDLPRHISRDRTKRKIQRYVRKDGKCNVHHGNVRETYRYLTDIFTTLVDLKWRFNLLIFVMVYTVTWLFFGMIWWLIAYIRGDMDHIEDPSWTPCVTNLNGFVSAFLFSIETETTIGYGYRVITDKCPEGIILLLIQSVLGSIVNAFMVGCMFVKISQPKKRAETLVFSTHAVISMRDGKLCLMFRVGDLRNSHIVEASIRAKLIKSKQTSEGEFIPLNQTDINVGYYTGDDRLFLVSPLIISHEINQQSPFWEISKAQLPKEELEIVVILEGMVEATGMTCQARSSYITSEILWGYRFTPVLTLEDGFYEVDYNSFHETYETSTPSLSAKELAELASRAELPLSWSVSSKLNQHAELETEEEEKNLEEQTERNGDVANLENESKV
The experiment in a line: two-electrode voltage clamp in Xenopus oocytes expressing homotetrameric GIRK2, single concentration […]. In kind it is cell-based. To be noted: read-out: % reduction in inward K+ currents at 10 μM.

For `Cc1c(C(=O)c2cccc3ccccc23)c2cccc3c2n1[C@H](CN1CCOCC1)CO3` [WIN55,212-2], the inhibition at 10 µM is 8.91 ± 1.68%.
